Among the data in patent US9067898B1, “Isothiazole derivatives as GPR120 agonists for the treatment of type II diabetes” (Janssen Pharmaceutica NV, priority 2014, dated 2015) are EC50 values, retold here.

T1 sequence (Q5NUL3 1-377 isoform Q5NUL3-1): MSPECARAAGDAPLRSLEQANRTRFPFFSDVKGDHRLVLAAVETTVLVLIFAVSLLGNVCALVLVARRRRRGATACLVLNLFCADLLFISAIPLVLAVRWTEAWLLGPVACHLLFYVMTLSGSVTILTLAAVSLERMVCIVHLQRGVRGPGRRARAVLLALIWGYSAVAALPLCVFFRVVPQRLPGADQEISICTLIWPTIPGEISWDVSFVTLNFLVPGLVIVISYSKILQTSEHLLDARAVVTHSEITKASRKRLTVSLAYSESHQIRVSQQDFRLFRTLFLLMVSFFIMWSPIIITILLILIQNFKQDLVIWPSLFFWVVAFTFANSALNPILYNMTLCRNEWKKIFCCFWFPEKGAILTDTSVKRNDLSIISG
T1 sequence (P32121 whole entry partner): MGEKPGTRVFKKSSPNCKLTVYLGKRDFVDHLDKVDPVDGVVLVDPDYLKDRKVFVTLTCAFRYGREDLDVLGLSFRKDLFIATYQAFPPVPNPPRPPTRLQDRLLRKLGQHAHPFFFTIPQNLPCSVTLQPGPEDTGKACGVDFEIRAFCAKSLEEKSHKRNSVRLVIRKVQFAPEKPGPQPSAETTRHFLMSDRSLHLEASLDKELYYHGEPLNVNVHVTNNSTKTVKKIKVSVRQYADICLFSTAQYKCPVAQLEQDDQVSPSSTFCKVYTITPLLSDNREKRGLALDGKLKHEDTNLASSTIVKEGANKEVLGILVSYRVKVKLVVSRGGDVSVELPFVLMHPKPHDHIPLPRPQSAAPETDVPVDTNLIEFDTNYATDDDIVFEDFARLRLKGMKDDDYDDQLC

This test concerns the target T1, long form of human GPR120 (Homo sapiens, UniProt Q5NUL3).
T1 construct: host or cells: PathHunter CHO-K1 GPR120 β-Arrestin Cell Line
The experiment in a line: Human GPR120 DiscoveRx PathHunter Beta-Arrestin assay, Procedure β-arrestin A. It is filed as cell-based. As to conditions: PathHunter CHO-K1 GPR120 β-Arrestin cell line, 3000 cells per well, read-out: hGPR120 β-arrestin A EC50. In outline: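 PathHunter CHO-K1 β-arrestin cells expressed long-form GPR120 (Procedure A, 3000 cells/well) or short-form GPR120 (Procedure B, 5000 cells/well). Compounds were serially diluted from 25 µM and incubated 90 min at 37 °C in HBSS/20 mM HEPES/0.1% BSA, pH 7.4. Luminescence was read after 60 min detection at RT; EC50 comes from % activity versus positive control, Hill slope fixed at 1.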
For the molecule “3-(4-[[3-(4-chlorophenyl)-5-(trifluoromethyl)-1,2-thiazol-4-yl]methoxy]-3-methylphenyl)propanoic acid [Cpd 235]”, the EC50 (usually the concentration at which the effect is half-maximal) was 431 nM. As for “3-(4-[[3-(4-ethylphenyl)-5-(trifluoromethyl)-1,2-thiazol-4-yl]methoxy]-1-benzothiophen-7-yl)propanoic acid [Cpd 92]”, the EC50 was 28 nM.

With “3-(4-[[3-(4-ethylphenyl)-5-(trifluoromethyl)-1,2-thiazol-4-yl]methoxy]-3,5-difluorophenyl)propanoic acid [Cpd 70]”, the EC50 amounted to 97 nM. Regarding `CCc1ccc(-c2cc(F)sc2COc2ccc(CCC(=O)O)c(C)c2C)cc1` [Cpd 1, 3-(4-[[3-(4-ethylphenyl)-5-fluorothiophen-2-yl]methoxy]-2,3-dimethylphenyl)propanoic acid], the EC50 was determined as 218 nM. Turning to `OCCCc1cc(F)c(OCc2c(-c3ccc4c(c3)OCO4)csc2C(F)(F)F)c(F)c1` [Cpd 37, 3-(4-((4-(benzo[d][1,3]dioxol-5-yl)-2-(trifluoromethyl)thiophen-3-yl)methoxy)-3,5-difluorophenyl)propan-1-ol], the EC50 was found to be 57 nM.

As to `Cc1ccc(-c2nsc(C(F)(F)F)c2COc2c(F)cc(CCC(=O)O)cc2F)c(F)c1` [Cpd 65, 3-(3,5-difluoro-4-[[3-(2-fluoro-4-methylphenyl)-5-(trifluoromethyl)-1,2-thiazol-4-yl]methoxy]phenyl)propanoic acid], the concentration for a half-maximal effect (EC50) came out at 168 nM. `O=C(O)CCc1cc(F)c(OCc2c(-c3ccc(Cl)c(F)c3)nsc2C(F)(F)F)c(F)c1` [Cpd 67, 3-(4-((3-(4-chloro-3-fluorophenyl)-5-(trifluoromethyl)isothiazol-4-yl)methoxy)-3,5-difluorophenyl)propanoic acid]: the EC50 worked out at 86 nM. As for `O=C(O)CCc1cc(F)c(OCc2c(C3CCCC3)nsc2C(F)(F)F)c(F)c1` [Cpd 71, 3-(4-[[3-cyclopentyl-5-(trifluoromethyl)-1,2-thiazol-4-yl]methoxy]-3,5-difluorophenyl)propanoic acid], the EC50 turned out to be 278 nM. As to `CCc1ccc(-c2nsc(C(F)(F)F)c2COc2ccc(CCC(=O)O)c(F)c2F)cc1` [Cpd 73, 3-(4-((3-(4-ethylphenyl)-5-(trifluoromethyl)isothiazol-4-yl)methoxy)-2,3-difluorophenyl)propanoic acid], the concentration for a half-maximal effect (EC50) is 134 nM. For `O=C(O)CCc1cc(F)c(OCc2c(-c3ccc(Cl)cc3F)nsc2C(F)(F)F)c(F)c1` [Cpd 74, 3-(4-((3-(4-chloro-2-fluorophenyl)-5-(trifluoromethyl)isothiazol-4-yl)methoxy)-3,5-difluorophenyl)propanoic acid], the EC50 was 143 nM. In the case of `O=C(O)CCc1cc(F)c(OCc2c(-c3ccc(Cl)cc3)nsc2C(F)(F)F)c(F)c1` [Cpd 79, 3-(4-[[3-(4-chlorophenyl)-5-(trifluoromethyl)-1,2-thiazol-4-yl]methoxy]-3,5-difluorophenyl)propanoic acid], the EC50 was determined as 71 nM. As to `CCc1ccc(-c2snc(Cl)c2COc2ccc(CCC(=O)O)c(C)c2C)cc1` [Cpd 85, 3-(4-[[3-chloro-5-(4-ethylphenyl)-1,2-thiazol-4-yl]methoxy]-2,3-dimethylphenyl)propanoic acid], the EC50 worked out at 166 nM. Turning to `OCCCc1cc(F)c(OCc2c(-c3ccc4c(c3)OCO4)nsc2C(F)(F)F)c(F)c1` [Cpd 93, 3-(4-[[3-(2H-1,3-benzodioxol-5-yl)-5-(trifluoromethyl)-1,2-thiazol-4-yl]methoxy]-3,5-difluorophenyl)propan-1-ol], the EC50 turned out to be 38 nM.

In the case of `OCCCc1cc(F)c(OCc2c(-c3ccc(Cl)cc3)nsc2C(F)(F)F)c(F)c1` [Cpd 100, 3-(4-[[3-(4-chlorophenyl)-5-(trifluoromethyl)-1,2-thiazol-4-yl]methoxy]-3,5-difluorophenyl)propan-1-ol], the EC50 came to 97 nM. As to `OCCCc1ccc(OCc2c(Cl)nsc2-c2ccc(Cl)cc2)c(F)c1F` [Cpd 102, 3-(4-((3-chloro-5-(4-chlorophenyl)isothiazol-4-yl)methoxy)-2,3-difluorophenyl)propan-1-ol], the EC50 amounted to 40 nM.

Take `CC(Cc1cc(F)c(OCc2c(-c3ccc(Cl)cc3)nsc2C(F)(F)F)c(F)c1)C(=O)O` (centres unmarked) [Cpd 108, 3-(4-[[3-(4-chlorophenyl)-5-(trifluoromethyl)-1,2-thiazol-4-yl]methoxy]-3,5-difluorophenyl)-2-methylpropanoic acid]: the EC50 was 261 nM. Under `O=C(O)CCc1cc(F)c(OCc2c(-c3ccc(Cl)cc3)nsc2C(F)(F)F)c(F)c1F` [Cpd 116, 3-(4-((3-(4-chlorophenyl)-5-(trifluoromethyl)isothiazol-4-yl)methoxy)-2,3,5-trifluorophenyl)propanoic acid] stands 112 nM; under `Cc1c(CCC(=O)O)ccc(OCc2c(-c3ccccc3)nsc2C(F)(F)F)c1C` [Cpd 134, 3-(2,3-dimethyl-4-[[3-phenyl-5-(trifluoromethyl)-1,2-thiazol-4-yl]methoxy]phenyl)propanoic acid], 252 nM. On to `O=C(O)CCc1cc(F)c(OCc2c(-c3ccc(Cl)c(F)c3)nsc2C(F)(F)F)c(F)c1F` [Cpd 138, 3-(4-((3-(4-chloro-3-fluorophenyl)-5-(trifluoromethyl)isothiazol-4-yl)methoxy)-2,3,5-trifluorophenyl)propanoic acid], for which the EC50 was 114 nM. With `Cc1c(CCC(=O)O)ccc(OCc2c(-c3ccc(Cl)cc3)nsc2C(F)(F)F)c1C` [Cpd 142, 3-(4-((3-(4-chlorophenyl)-5-(trifluoromethyl)isothiazol-4-yl)methoxy)-2,3-dimethylphenyl)propanoic acid], the EC50 is 141 nM. Take `O=C(O)CCc1c(F)c(F)c(OCc2c(-c3ccc(Cl)cc3)nsc2C(F)(F)F)c(F)c1F` [Cpd 152, 3-(4-((3-(4-chlorophenyl)-5-(trifluoromethyl)isothiazol-4-yl)methoxy)-2,3,5,6-tetrafluorophenyl)propanoic acid]: the EC50 amounted to 183 nM. Next, `O=C(O)CCc1cc(F)c(OCc2c(-c3ncc(Cl)cc3F)nsc2C(F)(F)F)c(F)c1` [Cpd 153, 3-(4-((3-(5-chloro-3-fluoropyridin-2-yl)-5-(trifluoromethyl)isothiazol-4-yl)methoxy)-3,5-difluorophenyl)propanoic acid]: 189 nM; `CCc1cc(CCC(=O)O)ccc1OCc1c(-c2ccc(Cl)cc2)nsc1C(F)(F)F` [Cpd 162, 3-(4-[[3-(4-chlorophenyl)-5-(trifluoromethyl)-1,2-thiazol-4-yl]methoxy]-3-ethylphenyl)propanoic acid]: 156 nM. `Cc1c(CCC(=O)O)ccc(OCc2c(-c3ncc(Cl)cc3F)nsc2C(F)(F)F)c1C` [Cpd 180, 3-(4-((3-(5-chloro-3-fluoropyridin-2-yl)-5-(trifluoromethyl)isothiazol-4-yl)methoxy)-2,3-dimethylphenyl)propanoic acid]: the EC50 was determined as 568 nM.

Turning to `Cc1ccccc1-c1snc(Cl)c1COc1c(F)cc(CCC(=O)O)cc1F` [Cpd 193, 3-(4-[[3-chloro-5-(2-methylphenyl)-1,2-thiazol-4-yl]methoxy]-3,5-difluorophenyl)propanoic acid], the EC50 came out at 322 nM. `OCC#Cc1cc(F)c(OCc2c(-c3ccc(Cl)cc3)nsc2C(F)(F)F)c(F)c1` [Cpd 213, 3-(4-[[3-(4-chlorophenyl)-5-(trifluoromethyl)-1,2-thiazol-4-yl]methoxy]-3,5-difluorophenyl)prop-2-yn-1-ol]: the EC50 was 59 nM.
